We go through four compounds from patent USRE36832E, “N-heteroaryl-N'-phenylurea derivatives, their production and use” (Nihon Nohyaku Co., LTD, priority 1993, dated 2000).

The subject of experiment [1] is cholesterol esterification in macrophages. Put plainly: Inhibitory effect on cholesterol esterification in macrophages (J774 A.1 cells, AcLDL-loaded, [14C]oleate incorporation). In kind it is cell-based. The following applies: Mus musculus, Macrophage, read-out: Inhibition rate (%). As for the experimental part: Inhibitory effect on cholesterol esterification in macrophages
The test was carried out by a modification of the method of Goldstein et al. [Pro. Nat. Acad. Sci. USA 71, 4288 (1974)]. J774 A.1 cells, the mouse macropharge-like cell line, were suspended in Dulbecco's modified Eagle's medium (DMEM) containing 10% fetal calf serum (FCS), in a proportion of 3×10^5 cells per 2 ml and were seeded into in 6-well plates. The cells were cultured under a humidified atmosphere of 95% air/5% CO2 at 37° C. for 24 hours. The medium was replaced by 1 ml of DMEM containing 10% of FCS and 50 μg/ml of acetylated human low density lipoprotein (AcLDL), followed by culturing for 16 hours. Five microliters each compound was dissolved in dimethyl sulfoxide and solution was added to the medium, followed by culturing for another 2 hours. Then, [14C]oleate (2×10^6 dpm/well) bovine serum albumin complex was added in the medium. After 2 hours of culture cells were collected and the cholesterol-esterifying activity was determined by measuring radioactivity incorporated into cholesterol esters in the cells. The recovery of the cholesterol esters was determined by the addition of [3H]cholesteryl oleate, and the esterifying activity was corrected using the recovery. As to the inhibitory activity on cholesterol esterification of the compound to be tested, the inhibition rate was calculated by the following equation. [formula] wherein A: the cholesterol-esterifying activity of AcLDL-loaded cells to which the compound to be tested was-added.
B: the cholesterol-esterifying activity of AcLDL-loaded cells to which dimethyl sulfoxide was added.

In experiment [2] the target is T1, acyl-CoA:cholesterol O-acyltransferase (ACAT) (Oryctolagus cuniculus, UniProt G1SFD9).
T1 construct: The intestinal mucosa of a white rabbit was homogenized and microsomal fraction was obtained by stepwise centrifugation; from tissue; host or cells: intestinal mucosa of white rabbit, microsomal fraction
T1 sequence (G1SFD9 1-524): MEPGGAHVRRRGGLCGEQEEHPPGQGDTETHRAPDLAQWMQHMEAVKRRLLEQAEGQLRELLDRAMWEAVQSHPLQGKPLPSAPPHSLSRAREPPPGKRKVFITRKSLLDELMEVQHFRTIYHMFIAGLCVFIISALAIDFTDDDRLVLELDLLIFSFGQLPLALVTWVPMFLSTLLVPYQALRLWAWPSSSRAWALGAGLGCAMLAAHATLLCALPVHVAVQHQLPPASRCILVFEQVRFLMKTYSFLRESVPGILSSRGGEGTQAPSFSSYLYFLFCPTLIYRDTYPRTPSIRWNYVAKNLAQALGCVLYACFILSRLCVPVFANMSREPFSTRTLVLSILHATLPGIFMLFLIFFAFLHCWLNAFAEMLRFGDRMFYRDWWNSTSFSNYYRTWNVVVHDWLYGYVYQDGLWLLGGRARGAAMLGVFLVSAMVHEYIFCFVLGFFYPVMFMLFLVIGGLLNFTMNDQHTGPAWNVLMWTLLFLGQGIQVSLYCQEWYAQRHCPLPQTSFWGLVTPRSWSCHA
Nature of the experiment: Inhibitory activity on acyl-CoA:cholesterol O-acyltransferase (ACAT), intestinal mucosa microsomal fraction, [1-14C]oleyl-CoA incorporation into cholesterol esters. It counts as biochemical, white rabbit. The following applies: read-out: Inhibition rate %. The method, then: Inhibitory activity on acyl-CoA:cholesterol Oacyltransferase (ACAT)
The enzyme used in the test was prepared according to the method of Heider et al. [J. Lipid, Res. 24, 1127 (1983)]. The intestinal mucosa of a white rabbit was homogenized and microsomal fraction was obtained by stepwise centrifugation. The microsomal fraction was suspended in 0,154M phosphate buffer (pH 0 7.4) and stored at -80° C. until use.
ACAT activity was determined by a modification of the method of Helgerud et al. [J. Lipid Res. 22, 271 (1981)] by measuring radioactivity incorporated into cholesterol esters from [1-14C]oleyl-CoA, as an indication. As to the ACAT-inhibiting activity of each compound to be tested, the inhibition rate was calculated by the following equation.

Another experiment has as its system serum cholesterol. Nature of the experiment: Serum cholesterol lowering activity in hamsters fed on a high-cholesterol diet. In kind it is in vivo, Male Syrian hamsters. The following applies: 30 mg per kg of body weight per day for 4 days, 24 hours after the last administration. The method, then: Serum cholesterol lowering activity in hamsters fed on a high-cholesterol diet
Male Syrian hamsters of 10-week-old were divided into three groups. The first group (normal group) was fed an ordinary diet for 4 days. The second group (control group) was fed a high cholesterol diet (containing 0.5% cholesterol and 8.0% coconut oil for 4 days. The third group (treated group) was fed a high cholesterol diet and was treated with a compound for 4 days. Simultaneously with the beginning of the above feeding, the compound suspended in a 0.5% carboxymethyl cellulose solution was administered to the treated group, in a dose of 30 mg (in terms of the compound) per kg of body weight per day for 4 days. A 0.5% carboxymethyl cellulose solution was also administered to the normal group and the control group in the same manner as above. After 24 hours of the last administration, blood was collected and the cholesterol concentration in serum was measured by an enzymatic method. The reduction rate of the total serum cholesterol concentration was calculated from values obtained for the three groups by the following equation. [formula] wherein A: the serum cholesterol concentration of the control group.
B: the serum cholesterol concentration of the compound treated group.
C: the serum cholesterol concentration of the normal group.

What is called inhibition is the share of the control response that was lost under treatment.

As for `CCc1cccc(CC)c1NC(=O)Nc1sc2cc(C)c(C)cc2c1-c1ccccc1Cl` [Compound 80, N-[3-(2-Chlorophenyl)-5,6-dimethyl-1-benzothiophen-2-yl]-N'-(2,6-diethylphenyl)urea], in experiment [1], the inhibition at 0.1 µM was 85.3% and the inhibition at 1 µM stood at 96.9%. For the same compound, the inhibition at 0.01 µM in experiment [2] worked out at 69.9%. In addition, the “Reduction rate (%) of the total serum cholesterol concentration” value (“Reduction rate (%)” below) in the experiment with serum cholesterol is given as 85.9%.

For `CCc1cccc(CC)c1NC(=O)Nc1sc2cc3c(cc2c1-c1ccccc1C)CCC3` [Compound 109, N-(2,6-Diethylphenyl)-N'-[3-(2-methylphenyl)-6,7-dihydro-5H-cyclopenta[f][1]benzothiophen-2-yl]urea], the inhibition at 0.01 µM in experiment [2] was 80.1%. Also, the “Reduction rate (%)” value in the experiment on serum cholesterol stood at 71.5%.

For `CCc1cccc(CC)c1NC(=O)Nc1oc2ccc(Cl)cc2c1-c1ccccc1Cl` [Compound 12, N-[5-Chloro-3-(2-chlorophenyl)benzofuran-2-yl]-N'-(2,6-diethylphenyl)urea], in experiment [1], the inhibition at 0.1 µM came to 93% and the inhibition at 1 µM turned out to be 99.5%. Also, in experiment [2], the inhibition at 0.01 µM is 82.9% and the inhibition at 1 µM was determined as 99.4%. In addition, the “Reduction rate (%)” value in the experiment on serum cholesterol worked out at 55.0%.

Consider `CCc1cccc(CC)c1NC(=O)Nc1oc2cc(C)c(C)cc2c1-c1ccccc1Cl` [Compound 37, N-[3-(2-Chlorophenyl)-5,6-dimethylbenzofuran-2-yl]-N'-(2,6-diethylphenyl)urea], for which, in experiment [2], the inhibition at 0.01 µM was 74.7% and the inhibition at 1 µM is 99.5%. For the same compound, the “Reduction rate (%)” value with serum cholesterol was determined as 59.3%.
